The values below come from patent publication US12581252B2, “Substituted pyrrolo[3,4-b]pyridines as PI3K-α inhibitors” (Relay Therapeutics, Inc., priority 2020, dated 2026).

pIC50: −log10 of the molar value.

Sequence of H1047R PIK3CA enzyme (P42336 whole entry H1047R): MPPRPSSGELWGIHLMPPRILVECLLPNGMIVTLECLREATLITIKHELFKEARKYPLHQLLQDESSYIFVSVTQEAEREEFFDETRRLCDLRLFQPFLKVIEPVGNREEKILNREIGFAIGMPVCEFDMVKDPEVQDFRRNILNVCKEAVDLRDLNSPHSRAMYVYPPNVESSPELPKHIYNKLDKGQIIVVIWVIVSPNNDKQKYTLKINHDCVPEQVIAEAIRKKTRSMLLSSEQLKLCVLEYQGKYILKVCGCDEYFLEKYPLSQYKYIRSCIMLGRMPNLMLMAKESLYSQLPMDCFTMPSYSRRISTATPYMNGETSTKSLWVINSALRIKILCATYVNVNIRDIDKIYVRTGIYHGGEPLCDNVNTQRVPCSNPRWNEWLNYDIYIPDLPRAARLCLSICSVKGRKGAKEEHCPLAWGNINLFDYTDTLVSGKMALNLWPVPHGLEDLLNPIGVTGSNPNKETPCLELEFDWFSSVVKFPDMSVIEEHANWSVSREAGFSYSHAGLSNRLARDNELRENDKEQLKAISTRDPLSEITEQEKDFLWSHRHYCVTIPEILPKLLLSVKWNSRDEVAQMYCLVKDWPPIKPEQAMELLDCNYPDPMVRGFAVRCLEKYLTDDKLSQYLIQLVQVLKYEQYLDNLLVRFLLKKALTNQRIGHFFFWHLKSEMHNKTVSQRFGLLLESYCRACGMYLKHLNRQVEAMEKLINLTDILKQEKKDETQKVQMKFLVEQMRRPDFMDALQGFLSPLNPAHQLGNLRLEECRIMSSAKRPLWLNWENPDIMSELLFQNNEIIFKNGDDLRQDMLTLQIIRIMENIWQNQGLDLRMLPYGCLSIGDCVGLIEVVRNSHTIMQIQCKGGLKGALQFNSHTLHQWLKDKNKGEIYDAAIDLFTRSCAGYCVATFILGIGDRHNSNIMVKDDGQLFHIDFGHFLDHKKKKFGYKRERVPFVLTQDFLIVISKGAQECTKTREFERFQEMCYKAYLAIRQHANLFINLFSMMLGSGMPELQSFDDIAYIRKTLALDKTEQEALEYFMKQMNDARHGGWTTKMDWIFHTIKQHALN
Sequence of H1047R PIK3CA enzyme (P27986 whole entry partner): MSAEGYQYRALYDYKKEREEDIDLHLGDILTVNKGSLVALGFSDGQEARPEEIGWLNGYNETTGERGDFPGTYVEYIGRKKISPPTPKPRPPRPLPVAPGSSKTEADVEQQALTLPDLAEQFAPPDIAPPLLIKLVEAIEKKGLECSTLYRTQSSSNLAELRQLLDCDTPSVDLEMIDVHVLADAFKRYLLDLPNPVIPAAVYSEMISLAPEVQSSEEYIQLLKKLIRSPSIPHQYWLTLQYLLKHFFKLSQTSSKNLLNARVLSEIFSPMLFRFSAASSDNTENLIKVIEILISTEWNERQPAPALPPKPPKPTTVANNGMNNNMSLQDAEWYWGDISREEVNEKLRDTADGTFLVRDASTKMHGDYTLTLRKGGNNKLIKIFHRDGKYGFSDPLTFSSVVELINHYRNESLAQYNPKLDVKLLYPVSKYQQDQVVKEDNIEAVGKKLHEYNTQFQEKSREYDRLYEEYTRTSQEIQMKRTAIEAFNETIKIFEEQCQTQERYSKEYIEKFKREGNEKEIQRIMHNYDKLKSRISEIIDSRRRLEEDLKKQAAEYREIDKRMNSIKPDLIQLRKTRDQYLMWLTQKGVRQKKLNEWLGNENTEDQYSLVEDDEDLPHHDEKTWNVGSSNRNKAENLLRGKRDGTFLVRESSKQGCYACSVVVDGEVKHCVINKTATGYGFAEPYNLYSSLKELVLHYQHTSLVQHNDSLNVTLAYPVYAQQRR

This test concerns the target H1047R PIK3CA enzyme (Homo sapiens, UniProt P42336, H1047R). Nature of the test: ADP-Glo Biochemical PIK3CA Kinase Assay.
In the case of `O=C1N[C@@H](c2cc(F)ccc2Cl)c2c(NC(=O)N3C[C@@H](O)c4cc(F)ccc43)cc(-n3ccccc3=O)cc21` (single isomer, unassigned) [Compound I-2351], the pIC50 is 6.30 to 7.00.

`Cc1cc(=O)[nH]cc1C(=O)Nc1cc(Br)cc2c1[C@H](c1cc(F)ccc1Cl)NC2=O` [Compound I-2108] gave a pIC50 of 4.00 to 5.00.

In turn, `O=C(Nc1cccc2c1[C@H](C1CCCC[C@@H]1O)NC2=O)c1cc(F)cc(C(F)(F)F)c1` (single isomer, unassigned) [Compound I-2110] had a pIC50 of 4.00 to 5.00.

For the compound `N#Cc1cnn(Cc2cc(NC(=O)c3cc(F)cc(C(F)(F)F)c3)c3c(c2)C(=O)NC3c2cc(F)ccc2Cl)c1` (centres unmarked) [Compound I-1588], the pIC50 was ≥ 7.00.

In the case of `O=C(Nc1cccc2c1[C@H](C1CCC(F)(F)CC1)NC2=O)c1cc(F)cc(C(F)(F)F)c1` [Compound I-2073], the pIC50 was 4.00 to 5.00.

Compound `NC(=O)C(C(=O)Nc1cc(-c2ccc3ncnn3c2)cc2c1C(c1cc(F)ccc1Cl)NC2=O)c1ccccc1` (centres unmarked) [Compound I-1787] had a pIC50 of 5.00 to 6.00.

With `O=C(Nc1cc(-c2ccc3ncnn3c2)cc2c1[C@@H](c1cc(F)cc(F)c1Cl)NC2=O)c1cc(F)cc(C(F)(F)F)c1` (stereo in doubt) [Compound I-1063], the negative logarithm of the IC50 (pIC50) is 4.00 to 5.00.

As for `CNC(=O)n1cc(-c2cc(NC(=O)c3cc(F)cc(C(F)(F)F)c3)c3c(c2)C(=O)NC3c2cc(F)ccc2Cl)cn1` (centres unmarked) [Compound I-1505], the pIC50 was ≥ 7.00.

Consider `O=C(Nc1cc(-c2cn(C(F)F)cn2)cc2c1[C@H](c1cc(F)ccc1Cl)NC2=O)c1cc(F)cc(C(F)(F)F)c1` [Compound I-1919], for which the pIC50 was ≥ 7.00.

`O=C(Nc1cc(N2CCc3ncccc32)cc2c1C(c1cc(F)ccc1Cl)NC2=O)c1cc(F)cc(C(F)(F)F)c1` (centres unmarked) [Compound I-1260]: the pIC50 is ≥ 7.00.

`O=C(Nc1cc(Cc2ccc3c(c2)CCNC3=O)cc2c1[C@@H](c1cc(F)ccc1Cl)NC2=O)c1cc(F)cc(C(F)(F)F)c1` [Compound I-1625]: the pIC50 was 6.00 to 6.30.

With `O=C(Nc1cc(-c2ccc3nc(C4CC4)nn3c2)cc2c1C(c1cc(F)ccc1Cl)NC2=O)c1cc(F)cc(C(F)(F)F)c1` (centres unmarked) [Compound I-1624], the negative logarithm of the IC50 (pIC50) was ≥ 7.00.

In the case of `COc1ncc2c(c1NC(=O)c1cc(F)cc(C(F)(F)F)c1)C(c1ccccc1Cl)NC2=O` (centres unmarked) [Compound I-335, N-(1-(2-chlorophenyl)-6-methoxy-3-oxo-2,3-dihydro-1H-pyrrolo[3,4-c]pyridin-7-yl)-3-fluoro-5-(trifluoromethyl)benzamide], the pIC50 was 4.00 to 5.00.

Take `Cc1cn(-c2cc(NC(=O)N3C[C@@](O)(C(F)(F)F)c4cc(F)ccc43)c3c(c2)C(=O)N[C@H]3c2cc(F)ccc2Cl)cn1` (single isomer, unassigned) [Compound I-2638]: the pIC50 is 5.00 to 6.00.

`N#Cc1ccc(C2NC(=O)c3cccc(NC(=O)c4cc(F)cc(C(F)(F)F)c4)c32)c(Cl)c1` (centres unmarked) [Compound I-422]: the pIC50 was 4.00 to 5.00.

`CNC1(c2cc(F)ccc2Cl)NC(=O)c2cc(C[S+](C)[O-])cc(NC(=O)c3cc(F)cc(C(F)(F)F)c3)c21` (centres unmarked) [Compound I-1138] gave a pIC50 of 5.00 to 6.00.

As for `O=C(Nc1cc(Br)cc2c1C(c1cc(F)ccc1Cl)NC2=O)c1cc(F)cc2c1NCCC2` (centres unmarked) [Compound I-1385], the pIC50 was 6.00 to 6.30.

As for `O=C(Nc1cc(Br)cc2c1C(c1cc(Cl)cc(F)c1F)NC2=O)c1cc(F)cc(C(F)(F)F)c1` (centres unmarked) [Compound I-785], the pIC50 is ≥ 7.00.

For the compound `O=C1NC(c2cc(F)c(F)cc2C(F)F)c2c(NC(=O)c3nsc4ccc(F)cc34)cccc21` (centres unmarked) [Compound I-332], the pIC50 is ≥ 7.00.

As for `O=C(Nc1cc(CC2(CO)COC2)cc2c1C(c1cc(F)ccc1Cl)NC2=O)c1cc(F)cc(C(F)(F)F)c1` (centres unmarked) [Compound I-1339], the pIC50 was ≥ 7.00.

Compound `CC(C)(O)c1cc(NC(=O)N2C[C@H](O)c3ccccc32)c2c(c1)C(=O)N[C@H]2c1cc(F)ccc1Cl` (single isomer, unassigned) [Compound I-2123] had a pIC50 of 6.00 to 6.30.

Compound `N#Cc1cnn(Cc2cc(NC(=O)N3C[C@@](O)(C(F)(F)F)c4cc(F)ccc43)c3c(c2)C(=O)N[C@H]3c2cc(F)ccc2Cl)c1` (single isomer, unassigned) [Compound I-2672] showed a pIC50 of 4.00 to 5.00.

Turning to `C[C@@H](c1cc(NC(=O)c2cc(F)cc(C(F)(F)F)c2)c2c(c1)C(=O)N[C@H]2c1cc(F)ccc1Cl)S(C)(=O)=O` (single isomer, unassigned) [Compound I-1641], the pIC50 is ≥ 7.00.

In turn, `O=C1NC(c2cc(F)ccc2Cl)c2ccc(-c3ccc4ncnn4c3)cc21` (centres unmarked) [Compound I-1775] showed a pIC50 of 4.00 to 5.00.

As for `N#C[C@H]1C[C@H](Oc2cc(NC(=O)c3cc(F)cc(C(F)(F)F)c3)c3c(c2)C(=O)N[C@@H]3c2cc(F)ccc2Cl)C1` (stereo in doubt) [Compound I-1304], the pIC50 is 5.00 to 6.00.

In turn, `O=C(Nc1cccc2c1[C@H](C1CCCCC1)NC2=O)c1cc(F)cc(C(F)(F)F)c1` [Compound I-2052] gave a pIC50 of 5.00 to 6.00.

On to `C[C@@H](CCC(F)(F)F)C(=O)Nc1cccc2c1[C@H](c1cc(F)ccc1Cl)NC2=O` [Compound I-2138], for which the pIC50 was 5.00 to 6.00.

`Cc1ccccc1C1NC(=O)c2cccc(NC(=O)c3cccc(F)c3)c21` (centres unmarked) [Compound I-475] had a pIC50 of 5.00 to 6.00.

Take `[2H]C([2H])(c1cc(NC(=O)c2cc(F)cc(C(F)(F)F)c2)c2c(c1)C(=O)N[C@H]2c1cc(F)ccc1Cl)S(C)(=O)=O` (single isomer, unassigned) [Compound I-1789]: the pIC50 was ≥ 7.00.

For the compound `O=C1N[C@H](c2cc(F)ccc2Cl)c2c(NC(=O)N3C[C@@](O)(C(F)(F)F)c4cc(F)ccc43)cc(C(F)F)cc21` (single isomer, unassigned) [Compound I-2577], the pIC50 is 5.00 to 6.00.

Consider `N#CC1CN(c2cc(NC(=O)c3cc(F)cc(C(F)(F)F)c3)c3c(n2)C(=O)NC3c2cc(F)ccc2Cl)C1` (centres unmarked) [Compound I-443], for which the pIC50 is ≥ 7.00.

`O=C1N[C@@H](c2cc(F)ccc2Cl)c2c(NC(=O)[C@H]3C[C@H]3C(F)(F)F)cc(Br)cc21` (racemic) [Compound I-1853]: the pIC50 was 4.00 to 5.00.

Compound `CCc1cc(F)cc(C(=O)Nc2cc(Br)cc3c2C(c2ccccc2C)NC3=O)c1` (centres unmarked) [Compound I-608] had a pIC50 of 6.00 to 6.30.

In turn, `O=C1N[C@@H](c2cc(F)ccc2Cl)c2c(N[C@H]3CCOc4ccccc43)cc(-c3cnn(C(F)F)c3)nc21` (single isomer, unassigned) [Compound I-2160] showed a pIC50 of 4.00 to 5.00.

The compound `Cc1ccccc1-n1[nH]c(=O)c2cccc(NC(=O)c3cc(F)cc(C(F)(F)F)c3)c21` [Compound I-178] showed a pIC50 of 6.00 to 6.30.

On to `O=C1NC(c2cc(F)ccc2Cl)c2c1cc(-c1ccc3ncnn3c1)cc2N1C(=O)CCC1=O` (centres unmarked) [Compound I-1990], for which the pIC50 is 4.00 to 5.00.

`NS(=O)(=O)c1cc(-c2ccc3ncnn3c2)cc2c1[C@H](c1cc(F)ccc1Cl)NC2=O` [Compound I-2101] showed a pIC50 of 4.00 to 5.00.

The compound `O=C1N[C@@H](c2cc(F)ccc2Cl)c2c(NC(=O)[C@H]3CCCCN3)cc(-c3ccc4ncnn4c3)cc21` [Compound I-2147] showed a pIC50 of 4.00 to 5.00.

On to `N#CC[C@H](O)c1cc(NC(=O)c2cc(F)cc(C(F)(F)F)c2)c2c(c1)C(=O)N[C@H]2c1cc(F)ccc1Cl` (single isomer, unassigned) [Compound I-1394], for which the pIC50 is ≥ 7.00.

Regarding `Cc1ccccc1C1NC(=O)c2c(C#N)ccc(NC(=O)c3csc4ccccc34)c21` (centres unmarked) [Compound I-132, N-(7-Cyano-1-oxo-3-(o-tolyl)isoindolin-4-yl)benzo[b]thiophene-3-carboxamide], the pIC50 is ≥ 7.00.

In the case of `O=C(Nc1cc(Br)cc2c1[C@H](c1cccc(F)c1Cl)NC2=O)c1cc(F)cc(C(F)(F)F)c1` [Compound I-669], the pIC50 was ≥ 7.00.

`Cc1nc2cc(-c3cc(NC(=O)c4cc(F)cc(C(F)(F)F)c4)c4c(c3)C(=O)NC4c3cc(F)ccc3Cl)ccc2o1` (centres unmarked) [Compound I-1036]: the pIC50 was ≥ 7.00.

Turning to `N#Cc1cccc(S(=O)(=O)Cc2cc(NC(=O)c3cc(F)cc(C(F)(F)F)c3)c3c(c2)C(=O)N[C@@H]3c2cc(F)ccc2Cl)c1` [Compound I-1595], the pIC50 is 5.00 to 6.00.

Turning to `O=C(Nc1cc(N2CC3(COC3)C2)cc2c1C(c1cc(F)ccc1Cl)NC2=O)c1cc(F)cc(C(F)(F)F)c1` (centres unmarked) [Compound I-729], the pIC50 is ≥ 7.00.

As to `O=C(Nc1cc(C2CNC2)cc2c1C(c1cc(F)ccc1Cl)NC2=O)c1cc(F)cc(C(F)(F)F)c1` (centres unmarked) [Compound I-654], the pIC50 was ≥ 7.00.

Compound `CC1(C2NC(=O)c3cccc(NC(=O)c4cc(F)cc(C(F)(F)F)c4)c32)CCCCC1` (centres unmarked) [Compound I-1917] showed a pIC50 of 4.00 to 5.00.

Regarding `Nc1cc(C(=O)Nc2cccc3c2C(c2cc(F)ccc2Cl)NC3=O)cc(C(F)(F)F)c1` (centres unmarked) [Compound I-449], the pIC50 was 5.00 to 6.00.

Consider `Cc1ccccc1C1NC(=O)c2cc(CF)cc(NC(=O)c3cc(F)cc(C(F)(F)F)c3)c21` (centres unmarked) [Compound I-536], for which the pIC50 is ≥ 7.00.

The compound `Cc1ccccc1[C@H]1NC(=O)c2nccc(NC(=O)N3CCc4ccc(F)cc43)c21` [Compound I-247] gave a pIC50 of 4.00 to 5.00.

For the compound `CS(=O)(Cc1cc(NC(=O)c2cc(F)cc(C(F)(F)F)c2)c2c(c1)C(=O)NC2c1cc(F)ccc1Cl)=Nc1cccnc1` (centres unmarked) [Compound I-1486], the pIC50 was ≥ 7.00.

As to `O=C1NC(c2c(F)cccc2F)c2c(NC(=O)c3nsc4ccccc34)cccc21` (centres unmarked) [Compound I-84], the pIC50 was 5.00 to 6.00.

The compound `Cc1ccccc1C1NC(=O)c2cccc(NC(=O)c3cc(Cl)n4ccccc34)c21` (centres unmarked) [Compound I-69] gave a pIC50 of 6.30 to 7.00.

As for `O=C(Nc1cc(Br)cc2c1C(c1cc(F)ccc1Cl)NC2=O)c1cc(F)cc(C(F)(F)F)c1Cl` (centres unmarked) [Compound I-809], the pIC50 is 5.00 to 6.00.

`O=Cc1cc(NC(=O)c2cc(F)cc(C(F)(F)F)c2)c2c(c1)C(=O)NC2c1cc(F)ccc1Cl` (centres unmarked) [Compound I-333, N-(3-(2-Chloro-5-fluorophenyl)-6-formyl-1-oxoisoindolin-4-yl)-3-fluoro-5-(trifluoromethyl)benzamide]: the pIC50 is ≥ 7.00.

Regarding `O=C(Nc1cc(Br)cc2c1C(c1cc(F)ccc1Cl)NC2=O)Oc1ccc2c(n1)NCC2` (centres unmarked) [Compound I-1206], the pIC50 was 4.00 to 5.00.

As for `O=C1NC(c2cc(F)ccc2Cl)c2c(NC(=O)N3CCCC3)cc(Br)cc21` (centres unmarked) [Compound I-481], the pIC50 is 4.00 to 5.00.
